Assay: Solubility in pure water with pH 7 at 25° C.
Type: physicochemical
Conditions: pH 7, 25° C., compared with the coloring material
Protocol: In order to inspect depositing quality due to the influence of pH, the solubility in pure water with pH7 at 25° C. has been compared between the compound represented by the general formula (I) or a salt thereof and the compound represented by the general formula (II) to find that the compound represented by the general formula (II) has a lower solubility than the compound represented by the general formula (I) or a salt thereof. This fact also has supported that the compound represented by the general formula (II) has a high depositing quality.

## O=C([O-])c1ccccc1Nc1nc(O)nc(Nc2ccccc2C(=O)[O-])n1.[Na+].[Na+] [Exemplified Compound B]
  solubility in pure water: lower than the solubility of Exemplified Compound A

Source: patent US20060125896A1, “Ink tank, ink jet recording method, and ink tank regeneration process” (Canon Kabushiki Kaisha, priority 2004, published 2006)
